Test results reported in patent US7795220B2, “Conformationally constrained parathyroid hormones with alpha-helix stabilizers” (The General Hospital Corporation, priority 2003, dated 2010).
Non-standard residues stand in square brackets, D forms with d. Residues, ends and D or L forms follow the SMILES beside them. hArg = N=C(N)NCCCC[C@H](N)C(=O)O; Ac5c = NC1(C(=O)O)CCCC1; Aib = CC(C)(N)C(=O)O

Legend:
[1] = system: P1R (recombinant P1R chimera) in HKRK-B28 cells; assay: cAMP stimulation in HKRK-B28 cells; format: cell-based, opposum/rat chimera
[2] = target: T1, P1R (recombinant P1R chimera) in HKRK-B28 cells (UniProt P25107+P25961, A364S/A509S/A517P/A524T/DEL519-521/E344G/G506A/H528S/I365V/I416T/I429T/K402R/K465R/L320I/M408V/N352H/S511P/S523T/T335G/T421L/T487S/V367L/V433I); assay: biochemical; format: binding, opposum/rat chimera; details: B28 cells
T1 construct: the opposum P1R from the N-terminus to the mid region of TM3; the rat P1R from the mid region of TM3 to the C-terminus; expressed in transfected cells
T1 sequence (P25107+P25961 fused with the stated changes): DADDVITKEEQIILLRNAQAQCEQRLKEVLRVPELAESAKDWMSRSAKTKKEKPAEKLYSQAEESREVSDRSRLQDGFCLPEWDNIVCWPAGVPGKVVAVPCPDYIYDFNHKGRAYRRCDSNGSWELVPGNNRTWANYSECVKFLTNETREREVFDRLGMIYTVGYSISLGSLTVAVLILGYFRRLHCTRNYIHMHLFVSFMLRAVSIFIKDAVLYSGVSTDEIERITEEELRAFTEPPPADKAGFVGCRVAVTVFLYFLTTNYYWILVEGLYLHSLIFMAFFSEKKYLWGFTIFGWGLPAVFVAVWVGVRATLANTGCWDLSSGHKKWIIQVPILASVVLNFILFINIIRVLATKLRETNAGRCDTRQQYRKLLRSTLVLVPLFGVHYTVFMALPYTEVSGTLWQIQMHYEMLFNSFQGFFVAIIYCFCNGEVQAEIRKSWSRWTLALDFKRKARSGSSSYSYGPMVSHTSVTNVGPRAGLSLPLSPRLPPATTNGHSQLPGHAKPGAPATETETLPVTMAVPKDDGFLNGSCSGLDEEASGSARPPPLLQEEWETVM
Text: Cell Culture. The cell line HKRK-B28 (Takasu, H., et al., J. Bone Miner. Res. 14:11-20 (1999)) was derived from the porcine kidney cell line, LLC-PK1 by stable transfection with plasmid DNA encoding a recombinant P1R chimera comprised of the opposum P1R from the N-terminus to the mid region of TM3 and the rat P1R from the mid region of TM3 to the C-terminus. The surface density of the P1R in these cells is ˜280,000 receptors per cell. The clonal cell line LdelNt-2 was derived from LLC-PK, cells via stable transfection with a plasmid encoding P1R-delNt, a recombinant human PTH-1 receptor construct in which most of the amino-terminal extracellular domain is deleted. These cells, as well as COS-7 cells and SaOS-2-B10 cells, were cultured at […] in T-75 flasks ([…]) in Dulbecco's modified Eagle's medium (DMEM) supplemented with fetal bovine serum (10%), penicillin G (20 units/ml), streptomycin sulfate (20 μg/ml) and amphotericin B (0.05 μg/ml) in a humidified atmosphere containing 5% CO2. Stock solutions of EGTA/trypsin and antibiotics were from GLBCO; fetal bovine serum was from Hyclone Laboratories (Logan, Utah). COS-7 cells sub-cultured in 24-well plates were transfected with plasmid DNA (200 ng per well) encoding the wild-type human P1R or truncated human P1R deleted for residues (24-181) (Shimizu, M., et al., J. Biol. Chem. 275:21836-21843 (2000)) that was purified by cesium chloride/ethidium bromide density gradient centrifugation, and FuGENE 6 transfection reagent (Roche Indianapolis Ind.) according to the manufacturer's recommended procedure. All cells, in 24-well plates, were treated with fresh media and shifted to 33° C. for 12 to 24 h prior to assay.
Competition Binding. Binding reactions were performed with HKRK-B28 cells or in COS-7 cells in 24-well plates. The cells were rinsed with 0.5 mL of binding buffer, and then treated successively with 100 μL binding buffer, 100 μL of binding buffer containing various amounts of unlabeled competitor ligand, and 100 μL of binding buffer containing ca. 100,000 cpm of ^125I-[Aib^1,3,Nle^8,Gln^10,Har^11,Ala^12,Trp^14,Arg^19,Tyr^21]rPTH(1-21) (SEQ. ID. NO. 36) (ca. 26 fmol; final volume=300 μL). Incubations were 4 to 6 h at 4° C., at which time near equilibrium conditions were attained. Cells were then placed on ice, the binding medium was removed, and the monolayer was rinsed three times with 0.5 mL of cold binding buffer. The cells were subsequently lysed with 0.5 mL 5N NaOH and counted for radioactivity. For each tracer and in each experiment, the non-specific binding was determined as the radioactivity that bound in the presence of the same unlabeled peptide at a concentration of 1 μM, and was ˜1% of total radioactivity added for each tracer. The maximum specific binding (B0) was the total radioactivity bound in the absence of competing ligand, corrected for nonspecific binding, and for each tracer, ranged from 8% to 20% of the total radioactivity added. Nonlinear regression was used to calculate binding IC50 values (see below). Scatchard transformations of homologous competition binding data derived from studies with 26 fmol of ^125I-[Aib^1,3,Nle^8,Gln^10,Har^11,Ala^12,Trp^14, Arg^19,Tyr^21]rPTH(1-21) (SEQ. ID. NO. 36) were employed for estimations of apparent equilibrium dissociation constant (kDapps) and total number of ligand binding sites (Bmax), assuming a single class of binding sites and equal affinities of the iodinated and non iodinated ligand.
Data Calculation. Calculations were performed using Microsoft® Excel. Nonlinear regression analyses of binding and cAMP dose-response data were performed using the four-parameter equation: yp=Min+[(Max−Min)/(1+(IC50/x)^slope)]. The Excel Solver function was utilized for parameter optimization, as described previously (Carter, P. H., et al., Endocrinology 140: 4972-4981 (1999); Bowen, W. P., and Jerman, J. C., Trends in Pharmacol. Sci. 16: 413-417 (1995)). […]

CC[C@H](C)[C@H](NC(=O)[C@H](CCC(=O)O)NC(=O)C(C)(C)NC(=O)[C@@H](NC(=O)C1(N)CCCC1)C(C)C)C(=O)N[C@@H](CCC(N)=O)C(=O)N[C@@H](CC(C)C)C(=O)N[C@@H](CCSC)C(=O)N[C@@H](Cc1c[nH]cn1)C(=O)N[C@@H](CCC(N)=O)C(=O)N[C@@H](CCCCNC(=N)N)C(=O)N[C@@H](C)C(=O)N[C@@H](CCCCN)C(=O)N[C@@H](Cc1c[nH]c2ccccc12)C(N)=O [[Ac5c^1,Aib^3,M]PTH(1-14), [Ac5c^1,Aib^3,Gln^10,Har^11,Ala^12,Trp^14]PTH(1-14)NH2] (H-[Ac5c]V[Aib]EIQLMHQ[hArg]AKW-NH2)
potency for stimulating adenylyl cyclase relative to [Aib1,3,M]PTH(1-14) [1]: 2 fold
EC50 ([1]; HKRK-B28 cells, intracellular cAMP accumulation, read-out: cAMP-stimulating potency (EC50)): 900 pM
increase in cAMP levels relative to basal ([1]; HKRK-B28 cells, peptide at 10 nM): 38 fold
potency for inhibiting tracer binding relative to [Aib1,3,M]PTH(1-14) [2]: 2 fold
